Series [1] in a line: Stability test in buffer (pH 7.4). Format: physicochemical. To be noted: phosphate buffer/acetonitrile 7:3, 100 mM potassium phosphate buffer (pH 7.4) and acetonitrile 7:3 (v/v), LC/MS; for remaining at 10 min: 10 minutes at 37°C, read-out: Buf. remaining rate (%/10min); for remaining at 1 h: 60 minutes at 37°C, read-out: Buf. remaining rate (%/60min). An outline of the steps:
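Compound from DMSO solution incubated at 37°C in 100 mM potassium phosphate buffer/acetonitrile 7:3 (v/v) for 0, 10 and 60 min, then quenched with acetonitrile containing formic acid (final 0.1%). Unchanged compound in supernatant quantified by LC/MS; remaining rate (%) = amount at each time / amount at zero time × 100.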

A short description of series [2]: Metabolic stability test in liver S9. To be noted: pH 7.4, human liver S9 2 mg protein/mL, LC/MS; for remaining at 10 min: unchanged form after 10 minutes at 37°C, read-out: Remaining rate in human liver S9 (%/10min); for remaining at 1 h: unchanged form after 60 minutes at 37°C, read-out: Remaining rate in human liver S9 (%/60min). Format: in vitro ADME. In outline: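 Compound from DMSO solution was incubated at 37°C with human liver S9 (final 2 mg protein/mL) in 100 mM potassium phosphate pH 7.4 with an NADPH-regenerating system for 0, 10 and 60 minutes. Reactions were stopped with acetonitrile/0.1% formic acid. Unchanged compound was measured by LC/MS as remaining rate (%) relative to zero time.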

Series [3] is described as follows: Metabolic stability test in plasma. Format: in vitro ADME, human. To be noted: LC/MS; for remaining at 10 min: unchanged form after 10 minutes at 37°C in human plasma, read-out: Remaining rate in human plasma (%/10min); for remaining at 1 h: unchanged form after 60 minutes at 37°C in human plasma, read-out: Remaining rate in human plasma (%/60min). An outline of the steps:
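Compound in DMSO spiked into human, mouse or hamster plasma, incubated at 37°C for 0, 10 and 60 minutes, then quenched with acetonitrile/formic acid (final 0.1%). Unchanged compound in supernatant quantified by LC/MS; remaining rate (%) relative to time zero.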

For the compound `CCOc1cc(C(=O)OC)cc(Cl)c1OC(=O)CCCc1ccc(NC(=O)c2ccc(C)nc2-c2ccc(C(F)(F)F)cc2)c(C(=O)N(C)C)c1` [Compound 1-40, 3-chloro-4-[4-(3-dimethylcarbamoyl-4-{[6-methyl-2-(4-trifluoromethylphenyl)pyridine-3-carbonyl]amino}phenyl)butyryloxy]-5-ethoxybenzoic acid methyl ester], the remaining at 10 min in series [1] came out at 100%; in series [2], 5%; in series [3], 0%. For the same compound, the results for the remaining at 1 h in series [1], in series [2] and in series [3] were 102%, 0% and 0%, respectively.

Consider `COC(=O)c1cc(C)c(OC(=O)CCCc2ccc(NC(=O)c3ccc(C)nc3-c3ccc(C(F)(F)F)cc3)c(C(=O)N(C)C)c2)c(F)c1` [Compound 1-41, 4-[4-(3-dimethylcarbamoyl-4-{[6-methyl-2-(4-trifluoromethylphenyl)pyridine-3-carbonyl]amino}phenyl)butyryloxy]-3-fluoro-5-methylbenzoic acid methyl ester], for which the remaining at 10 min amounted to 103% in series [1], 4% in series [2] and 37% in series [3]. The remaining at 1 h in series [1] came to 106%; in series [2], 0%; in series [3], 0%.

As to `CCc1cc(C(=O)OC)cc(F)c1OC(=O)CCCc1ccc(NC(=O)c2ccc(C)nc2-c2ccc(C(F)(F)F)cc2)c(C(=O)N(C)C)c1` [Compound 1-42, 4-[4-(3-dimethylcarbamoyl-4-{[6-methyl-2-(4-trifluoromethylphenyl)pyridine-3-carbonyl]amino}phenyl)butyryloxy]-3-ethyl-5-fluorobenzoic acid methyl ester], the remaining at 10 min in series [1] is 103%; in series [2] it was 5%; in series [3] it was 52%. Besides, the values for the remaining at 1 h in series [1], in series [2] and in series [3] were 103%, 0% and 0%, respectively.

With `CCOC(=O)c1cc(OC)c(OC(=O)CCCc2ccc(NC(=O)c3ccc(C)nc3-c3ccc(C(F)(F)F)cc3)c(C(=O)N(C)C)c2)c(OC)c1` [Compound 1-43, 4-[4-(3-dimethylcarbamoyl-4-{[6-methyl-2-(4-trifluoromethylphenyl)pyridine-3-carbonyl]amino}phenyl)butyryloxy]-3,5-dimethoxybenzoic acid ethyl ester], the remaining at 10 min was determined as 101% in series [1], 4% in series [2] and 13% in series [3]. Besides, the figures for the remaining at 1 h in series [1], in series [2] and in series [3] were 103%, 2% and 0%, respectively.

`COc1cc(C(=O)OC(C)C)cc(OC)c1OC(=O)CCCc1ccc(NC(=O)c2ccc(C)nc2-c2ccc(C(F)(F)F)cc2)c(C(=O)N(C)C)c1` [Compound 1-44, 4-[4-(3-dimethylcarbamoyl-4-{[6-methyl-2-(4-trifluoromethylphenyl)pyridine-3-carbonyl]amino}phenyl)butyryloxy]-3,5-dimethoxybenzoic acid isopropyl ester]: the remaining at 10 min in series [1] turned out to be 99%; in series [2] it was 12%; in series [3], 13%. Besides, the values for the remaining at 1 h in series [1], in series [2] and in series [3] were 100%, 4% and 0%, respectively.

Regarding `COC(=O)c1cc(C)c(OC(=O)CCCc2ccc(NC(=O)c3ccc(C)nc3-c3ccc(C(F)(F)F)cc3)c(C(=O)N(C)C)c2)c(C(F)(F)F)c1` [Compound 1-45, 4-[4-(3-dimethylcarbamoyl-4-([6-methyl-2-(4-trifluoromethylphenyl)pyridine-3-carbonyl]amino}phenyl)butyryloxy]-3-methyl-5-trifluoromethylbenzoic acid methyl ester], the remaining at 10 min in series [1] came out at 101%; in series [2], 12%; in series [3], 89%. In addition, the remaining at 1 h in series [1] amounted to 102%; in series [2], 2%; in series [3] it was 48%.

For the compound `COC(=O)c1cc(C)c(OC(=O)CCCc2ccc(NC(=O)c3ccc(C)nc3-c3ccc(C(F)(F)F)cc3)c(C(=O)N(C)C)c2)c(OC)c1` [Compound 1-46, 4-[4-(3-dimethylcarbamoyl-4-{[6-methyl-2-(4-trifluoromethylphenyl)pyridine-3-carbonyl]amino}phenyl)butyryloxy]-3-methoxy-5-methylbenzoic acid methyl ester], the remaining at 10 min in series [1] came out at 99%; in series [2], 5%; in series [3], 39%. The remaining at 1 h turned out to be 102% in series [1], 2% in series [2] and 0% in series [3].

Turning to `COC(=O)c1cc(OC)c(OC(=O)CCCc2ccc(NC(=O)c3ccc(C)nc3-c3ccc(C(F)(F)F)cc3)c(C(=O)N(C)C)c2)c(C(F)(F)F)c1` [Compound 1-47, 4-[4-(3-dimethylcarbamoyl-4-{[6-methyl-2-(4-trifluoromethylphenyl)pyridine-3-carbonyl]amino}phenyl)butyryloxy]-3-methoxy-5-trifluoromethylbenzoic acid methyl ester], the remaining at 10 min is 96% in series [1], 14% in series [2] and 0% in series [3]. For the same compound, the remaining at 1 h in series [1] turned out to be 97%; in series [2], 0%; in series [3], 0%.

On to `CCOC(=O)c1cc(Cl)c(OC(=O)CCCc2ccc(NC(=O)c3ccc(C)nc3-c3ccc(C(F)(F)F)cc3)c(C(=O)N(C)C)c2)c(OC)c1` [Compound 1-48, 3-chloro-4-[4-(3-dimethylcarbamoyl-4-{[6-methyl-2-(4-trifluoromethylphenyl)pyridine-3-carbonyl]amino}phenyl)butyryloxy]-5-methoxybenzoic acid ethyl ester], for which the figures for the remaining at 10 min in series [1], in series [2] and in series [3] were 99%, 16% and 0%, respectively. In addition, the remaining at 1 h stood at 97% in series [1], 6% in series [2] and 0% in series [3].

As to `CCOc1cc(C(=O)OC)cc(OC)c1OC(=O)CCCc1ccc(NC(=O)c2ccc(C)nc2-c2ccc(C(F)(F)F)cc2)c(C(=O)N(C)C)c1` [Compound 1-49, 4-[4-(3-dimethylcarbamoyl-4-{[6-methyl-2-(4-trifluoromethylphenyl)pyridine-3-carbonyl]amino}phenyl)butyryloxy]-3-ethoxy-5-methoxybenzoic acid methyl ester], the remaining at 10 min worked out at 100% in series [1], 6% in series [2] and 0% in series [3]. Besides, the remaining at 1 h in series [1] is 100%; in series [2], 1%; in series [3], 0%.

With `COC(=O)c1cc(Br)c(OC(=O)CCCc2ccc(NC(=O)c3ccc(C)nc3-c3ccc(C(F)(F)F)cc3)c(C(=O)N(C)C)c2)c(OC)c1` [Compound 1-50, 3-bromo-4-[4-(3-dimethylcarbamoyl-4-{[6-methyl-2-(4-trifluoromethylphenyl)pyridine-3-carbonyl]amino}phenyl)butyryloxy]-5-methoxybenzoic acid methyl ester], the results for the remaining at 10 min in series [1], in series [2] and in series [3] were 97%, 7% and 0%, respectively. The values for the remaining at 1 h in series [1], in series [2] and in series [3] were 103%, 2% and 0%, respectively.

On to `CCc1cc(C(=O)OC)cc(C(=O)OC)c1OC(=O)CCCc1ccc(NC(=O)c2ccc(C)nc2-c2ccc(C(F)(F)F)cc2)c(C(=O)N(C)C)c1` [Compound 1-51, 4-[4-(3-dimethylcarbamoyl-4-([6-methyl-2-(4-trifluoromethylphenyl)pyridine-3-carbonyl]amino}phenyl)butyryloxy]-5-ethylisophthalic acid dimethyl ester], for which the remaining at 10 min in series [1] turned out to be 98%; in series [2], 8%; in series [3] it was 23%. The remaining at 1 h came out at 101% in series [1], 3% in series [2] and 0% in series [3].

For `CCOC(=O)c1cc(C)c(OC(=O)CCCc2ccc(NC(=O)c3ccc(C)nc3-c3ccc(C(F)(F)F)cc3)c(C(=O)N(C)C)c2)c(C(=O)OC)c1` [Compound 1-52, 4-[4-(3-dimethylcarbamoyl-4-{[6-methyl-2-(4-trifluoromethylphenyl)pyridine-3-carbonyl]amino}phenyl)butyryloxy]-5-methylisophthalic acid 1-ethyl ester 3-methyl ester], the remaining at 10 min was determined as 100% in series [1], 13% in series [2] and 12% in series [3]. Also, the remaining at 1 h in series [1] is 101%; in series [2], 4%; in series [3], 0%.

The values above are taken from patent publication EP1803452A1, “ESTER DERIVATIVE AND PHARMACEUTICAL USE THEREOF” (Japan Tobacco, Inc., priority 2004, dated 2006).
